Series [1] is described as follows: Solvency: maximum amount of active ingredient solubilized per liter of solvent. Conditions: for Solvency in N-methylpyrrolidone (NMP): solvent N-methylpyrrolidone (NMP); for Solvency in γ-butyrolactone: solvent γ-butyrolactone.
Protocol: The above compositions were prepared at a temperature of about 50° ° C. stirred with a vortex mixer until visual inspection indicated the absence of solids, confirming solubilization of the active ingredient in the solvent.
Series [2] in a line: Crystallization test of azoxystrobin solution upon dilution in water. The format is physicochemical. Conditions: azoxystrobin solution (100 g/L) in the solvent diluted 1:20 in water. The source says: The active ingredient azoxystrobin was chosen to carry out an additional test of crystallization of the active ingredient upon dilution in water. […] Among the solvents chosen for evaluation are the solvents dihydrolevoglucosenone, γ-butyrolactone, N-methylpyrrolidone, and triacetin.

Series [3] deals with Euphorbia pulcherrima (Euphorbiaceae), Poinsettia.
Description: Phytotoxicity data were generated in tests on Poinsettia (red leaves plant), since this leaf is sensitive to damage caused by chemical agents, which makes it possible to verify and compare the tested solvents.
The conditions of series [4]: 1-octanol/water; cited from earlier work.
The conditions of series [5]: safety data sheet class; cited from earlier work.
[6] abbreviates: Euphorbia pulcherrima (Poinsettia), in vivo, 24 h.

Where two headings read alike, the source gives them in different places.

As to `CO/C=C(/C(=O)OC)c1ccccc1Oc1cc(Oc2ccccc2C#N)ncn1` [Azoxystrobin], in series [1], the “Solvency in N-methylpyrrolidone (NMP)” value is on record as 900 g/L and the “Solvency in γ-butyrolactone” value was 800 g/L.

Take `CS(=O)(=O)c1ccc(C(=O)C2C(=O)CCCC2=O)c([N+](=O)[O-])c1` [Mesotrione]: in series [1], the “Solvency in N-methylpyrrolidone (NMP)” value is on record as 400 g/L and the “Solvency in γ-butyrolactone” value stood at 300 g/L.

What is called logP is a log measure of how a compound divides between an organic and an aqueous phase. With `CN1CCCC1=O` [NMP, N-methylpyrrolidone], the Observation by dilution entry in series [2] was “Immediate”. For the same molecule, the “Phytotoxicity (damage %)” value in series [3] (setting [6]) came out at 42%. Also, the logP in series [4] is listed as −0.40. Besides, in series [5], the Eye irritation is 2A, the Reproductive system tox. is listed as 1B, the Respiratory tox. was 3 and the Skin irritation is recorded as 2.

As for `OC(Cc1ccccc1Cl)(Cn1nc[nH]c1=S)C1(Cl)CC1` (centres unmarked) [Prothioconazole], in series [1], the “Solvency in N-methylpyrrolidone (NMP)” value is listed as 1100 g/L and the “Solvency in γ-butyrolactone” value is recorded as 900 g/L.

As to `CC(=O)OCC(COC(C)=O)OC(C)=O` [Triacetin], the Observation by dilution result in series [2] is reported as “Two-phase”.

With `O=C1CCC2COC1O2` (centres unmarked) [dihydrolevoglucosenone, 6,8-dioxabicyclo[3.2.1]octan-4-one], the Observation by dilution result in series [2] is “Two-phase”. In series [3] (setting [6]), the “Phytotoxicity (damage %)” value is 6%. In addition, the logP in series [4] is reported as −1.52. Moreover, the Eye irritation in series [5] was 2A.

Regarding `O=C1CCCO1` [γ-butyrolactone], in series [2], the Observation by dilution entry is listed as “Immediate”. Besides, the “Phytotoxicity (damage %)” value in series [3] (damage observed in each Poinsettia leaf after 24 h of exposure) came out at 27%. In series [5], the Aquatic environment tox. is on record as 3, the “Central nervous system tox.” value is reported as 3 and the Eye irritation is given as 1.

Values taken from patent US20240251787A1, “AGROCHEMICAL COMPOSITION, AGROCHEMICAL FORMULATION, USE OF A DIOXABICYCLOALKANE DERIVATIVE, AND, METHOD FOR THE TREATMENT AND/OR PREVENTION OF DISEASES OR PESTS IN A PLANT OR PLANT SEED” (Oxiteno S.A. Indústria e Comércio, priority 2021, published 2024).
